In brackets after ≈: the same amount, converted by molar mass.
Assays:
Assay type in all cases: cell-based
[1] = tested on: S. aureus ATCC 29213 (SA101, MSSA); experiment: Minimum inhibitory concentration assay, SA101; conditions: Staphylococcus aureus; S. aureus ATCC 29213, MSSA control; read-out: MICs SA101
Protocol: (§1) Frozen bacterial strains were thawed and subcultured onto Mueller Hinton Broth (MHB) or other appropriate media (Streptococcus requires blood and Haemophilus requires hemin and NAD). Following incubation overnight, the strains were subcultured onto Mueller Hinton Agar and again incubated overnight. […] Isolated colonies were selected to prepare a starting inoculum equivalent to a 0.5 McFarland standard. The starting inoculum was diluted 1:125 using MHB for further use. Test compounds were prepared by dilution in sterile water to a final concentration of 5.128 mg/mL. Antibiotics (stored frozen, thawed and used within 3 hours of thawing) and compounds were further diluted to the desired working concentrations.
(§2) The assays were run as follows. Fifty μL of MHB was added to wells 2-12 of a 96-well plate. One hundred […] of appropriately diluted antibiotics was added to well 1. Fifty μL of antibiotics was removed from well 1 and added to well 2 and the contents of well 2 mixed by pipetting up and down five times. Fifty μL of the mixture in well 2 was removed and added to well 3 and mixed as above. Serial dilutions were continued in the same manner through well 12. Fifty μL was removed from well 12 so that all contained 50 μL. Fifty μL of the working inoculum was then added to all test wells. A growth control well was prepared by adding 50 μL of working inoculum and 50 μL of MHB to an empty well. The plates were then incubated at 37° C. overnight, removed from the incubator and each well was read on a plate reading mirror. The lowest concentration (MIC) of test compound that inhibited the growth of the bacteria was recorded.

[2] = tested on: S. aureus SA161 (tet resistant: tet(M) ribosomal protection); experiment: Minimum inhibitory concentration assay, SA161; conditions: Staphylococcus aureus, read-out: MICs SA161
Protocol: as §1, §2

[3] = tested on: A. baumanii ATCC 19606 (AB110); experiment: Minimum inhibitory concentration assay, AB110; conditions: Acinetobacter baumannii, ATCC19606; A. baumanii ATCC 19606, wt; read-out: MICs AB110
Protocol: as §1, §2

[4] = tested on: E. faecalis EF159 (tet resistant: tetM); experiment: Minimum inhibitory concentration assay, EF159; conditions: Enterococcus faecalis, read-out: MICs EF159
Protocol: as §1, §2

[5] = tested on: E. coli EC155 (tet resistant: tetA efflux); experiment: microbe, parasite or virus in culture; conditions: Escherichia coli; E. coli tet resistant: tetA (efflux); read-out: MICs EC155
Protocol: as §1, §2

[6] = tested on: S. aureus SA158 (tet resistant: tetK efflux); experiment: microbe, parasite or virus in culture; conditions: Staphylococcus aureus, read-out: MICs SA158
Protocol: as §1, §2

[7] = tested on: K. pneumoniae KP153 (tet resistant: tetA efflux); experiment: microbe, parasite or virus in culture; conditions: Klebsiella pneumoniae, read-out: MICs KP153
Protocol: as §1, §2

[8] = tested on: S. aureus ATCC 13709 (SA100, MSSA, Smith strain); experiment: Minimum inhibitory concentration assay, SA100; conditions: Staphylococcus aureus; S. aureus ATCC 13709, MSSA Smith strain; read-out: MICs SA100
Protocol: as §1, §2

[9] = tested on: E. faecalis ATCC 29212 (EF103); experiment: Minimum inhibitory concentration assay, EF103; conditions: Enterococcus faecalis, ATCC29212, read-out: MICs EF103
Protocol: as §1, §2

[10] = tested on: E. coli ATCC 25922 (EC107); experiment: Minimum inhibitory concentration assay, EC107; conditions: Escherichia coli, ATCC25922; E. coli ATCC 25922, wt; read-out: MICs EC107
Protocol: as §1, §2

[11] = tested on: P. aeruginosa ATCC 27853 (PA111); experiment: Minimum inhibitory concentration assay, PA111; conditions: Pseudomonas aeruginosa, ATCC27853; P. aeruginosa ATCC 27853, wt; read-out: MICs PA111
Protocol: as §1, §2

[12] = tested on: K. pneumoniae ATCC 13883 (KP109); experiment: Minimum inhibitory concentration assay, KP109; conditions: Klebsiella pneumoniae, ATCC13883; K. pneumoniae ATCC 13883, wt; read-out: MICs KP109
Protocol: as §1, §2

[13] = tested on: E. cloacae ATCC 13047 (EC108); experiment: Minimum inhibitory concentration assay, EC108; conditions: Enterobacter cloacae, ATCC13047; E. cloacae ATCC 13047, wt; read-out: MICs EC108
Protocol: as §1, §2

[14] = tested on: S. pneumoniae ATCC 49619 (SP106); experiment: Minimum inhibitory concentration assay, SP106; conditions: Streptococcus pneumoniae, ATCC49619; S. pneumoniae ATCC 49619, wt; read-out: MICs SP106
Protocol: as §1, §2

[15] = tested on: S. pneumoniae SP160 (tet resistant: tet M); experiment: Minimum inhibitory concentration assay, SP160; conditions: Streptococcus pneumoniae, read-out: MICs SP160
Protocol: as §1, §2

Row | SMILES | MIC [1] [µg/mL] | MIC [2] [µg/mL] | MIC [3] [µg/mL] | MIC [4] [µg/mL] | MIC [5] [µg/mL] | MIC [6] [µg/mL] | MIC [7] [µg/mL] | MIC [8] [µg/mL] | MIC [9] [µg/mL] | MIC [10] [µg/mL] | MIC [11] [µg/mL] | MIC [12] [µg/mL] | MIC [13] [µg/mL] | MIC [14] [µg/mL] | MIC [15] [µg/mL]
1 | CC(C)CNCC(=O)Nc1cc(F)c2c(c1O)C(=O)C1=C(O)[C@]3(O)C(=O)C(C(N)=O)=C(O)[C@@H](N(C)C)[C@@H]3C[C@@H]1C2 [Compound 19] | 0.125 (≈ 0.223 µM) | 0.25 (≈ 0.446 µM) | 0.25 (≈ 0.446 µM) | 0.125 (≈ 0.223 µM) | 4 (≈ 7.14 µM) | 0.25 (≈ 0.446 µM) | 4 (≈ 7.14 µM) | 0.25 (≈ 0.446 µM) | ≤ 0.0156 | 0.25 (≈ 0.446 µM) | 16 (≈ 28.5 µM) | 1 (≈ 1.78 µM) | 2 (≈ 3.57 µM) | ≤ 0.0156 | ≤ 0.0156
2 | CN(C)[C@@H]1C(O)=C(C(N)=O)C(=O)[C@@]2(O)C(O)=C3C(=O)c4c(O)c(NC(=O)CNCC5CC5)cc(F)c4C[C@H]3C[C@@H]12 [Compound 20] | ≤ 0.0156 | 0.25 (≈ 0.448 µM) | 1 (≈ 1.79 µM) | 0.0625 (≈ 0.112 µM) | 8 (≈ 14.3 µM) | 0.5 (≈ 0.895 µM) | 4 (≈ 7.16 µM) | 0.25 (≈ 0.448 µM) | ≤ 0.0156 | 0.25 (≈ 0.448 µM) | 8 (≈ 14.3 µM) | 1 (≈ 1.79 µM) | 1 (≈ 1.79 µM) | ≤ 0.0156 | ≤ 0.0156
3 | COCCNCC(=O)Nc1cc(F)c2c(c1O)C(=O)C1=C(O)[C@]3(O)C(=O)C(C(N)=O)=C(O)[C@@H](N(C)C)[C@@H]3C[C@@H]1C2 [Compound 21] | 0.25 (≈ 0.444 µM) | 0.5 (≈ 0.889 µM) | 2 (≈ 3.56 µM) | 1 (≈ 1.78 µM) | 16 (≈ 28.4 µM) | 4 (≈ 7.11 µM) | 8 (≈ 14.2 µM) | 0.25 (≈ 0.444 µM) | 0.125 (≈ 0.222 µM) | 1 (≈ 1.78 µM) | 16 (≈ 28.4 µM) | 2 (≈ 3.56 µM) | 4 (≈ 7.11 µM) | ≤ 0.0156 | 0.0625 (≈ 0.111 µM)
4 | CN(C)[C@@H]1C(O)=C(C(N)=O)C(=O)[C@@]2(O)C(O)=C3C(=O)c4c(O)c(NC(=O)CNCC(F)(F)F)cc(F)c4C[C@H]3C[C@@H]12 [Compound 22] | 1 (≈ 1.71 µM) | 2 (≈ 3.41 µM) | 2 (≈ 3.41 µM) | 4 (≈ 6.82 µM) | > 32 | 4 (≈ 6.82 µM) | > 32 | 1 (≈ 1.71 µM) | 2 (≈ 3.41 µM) | 16 (≈ 27.3 µM) | > 32 | 32 (≈ 54.6 µM) | > 32 | 0.5 (≈ 0.853 µM) | 1 (≈ 1.71 µM)
5 | CN(C)CC(=O)Nc1cc(F)c2c(c1O)C(=O)C1=C(O)[C@]3(O)C(=O)C(C(N)=O)=C(O)[C@@H](N(C)C)[C@@H]3C[C@@H]1C2 [Compound 23] | ≤ 0.0156 | 0.125 (≈ 0.235 µM) | 0.125 (≈ 0.235 µM) | 0.0313 (≈ 0.0588 µM) | 8 (≈ 15 µM) | 0.25 (≈ 0.469 µM) | 8 (≈ 15 µM) | 0.5 (≈ 0.939 µM) | ≤ 0.0156 | 0.125 (≈ 0.235 µM) | 8 (≈ 15 µM) | 0.5 (≈ 0.939 µM) | 1 (≈ 1.88 µM) | ≤ 0.0156 | ≤ 0.0156
6 | CCN(C)CC(=O)Nc1cc(F)c2c(c1O)C(=O)C1=C(O)[C@]3(O)C(=O)C(C(N)=O)=C(O)[C@@H](N(C)C)[C@@H]3C[C@@H]1C2 [Compound 24] | 0.25 (≈ 0.457 µM) | 0.125 (≈ 0.229 µM) | 0.0313 (≈ 0.0573 µM) | ≤ 0.0156 | 8 (≈ 14.6 µM) | 0.125 (≈ 0.229 µM) | 8 (≈ 14.6 µM) | 0.25 (≈ 0.457 µM) | ≤ 0.0156 | 0.5 (≈ 0.915 µM) | 16 (≈ 29.3 µM) | 1 (≈ 1.83 µM) | 2 (≈ 3.66 µM) | ≤ 0.0156 | ≤ 0.0156
7 | CCN(CC)CC(=O)Nc1cc(F)c2c(c1O)C(=O)C1=C(O)[C@]3(O)C(=O)C(C(N)=O)=C(O)[C@@H](N(C)C)[C@@H]3C[C@@H]1C2 [Compound 25] | 0.125 (≈ 0.223 µM) | 0.125 (≈ 0.223 µM) | 0.125 (≈ 0.223 µM) | 0.0625 (≈ 0.111 µM) | 8 (≈ 14.3 µM) | 0.0313 (≈ 0.0558 µM) | 8 (≈ 14.3 µM) | 0.125 (≈ 0.223 µM) | ≤ 0.0156 | 0.5 (≈ 0.892 µM) | 32 (≈ 57.1 µM) | 2 (≈ 3.57 µM) | 2 (≈ 3.57 µM) | ≤ 0.0156 | ≤ 0.0156
8 | CCCCCNCC(=O)Nc1cc(F)c2c(c1O)C(=O)C1=C(O)[C@]3(O)C(=O)C(C(N)=O)=C(O)[C@@H](N(C)C)[C@@H]3C[C@@H]1C2 [Compound 26] | 1 (≈ 1.74 µM) | 1 (≈ 1.74 µM) | 0.25 (≈ 0.435 µM) | 0.5 (≈ 0.87 µM) | 4 (≈ 6.96 µM) | 1 (≈ 1.74 µM) | 4 (≈ 6.96 µM) | 1 (≈ 1.74 µM) | 0.25 (≈ 0.435 µM) | 0.5 (≈ 0.87 µM) | 16 (≈ 27.8 µM) | 2 (≈ 3.48 µM) | 2 (≈ 3.48 µM) | ≤ 0.0156 | ≤ 0.0156
9 | COCCCNCC(=O)Nc1cc(F)c2c(c1O)C(=O)C1=C(O)[C@]3(O)C(=O)C(C(N)=O)=C(O)[C@@H](N(C)C)[C@@H]3C[C@@H]1C2 [Compound 27] | 2 (≈ 3.47 µM) | 4 (≈ 6.94 µM) | 16 (≈ 27.7 µM) | 4 (≈ 6.94 µM) | 32 (≈ 55.5 µM) | 16 (≈ 27.7 µM) | 32 (≈ 55.5 µM) | 2 (≈ 3.47 µM) | 2 (≈ 3.47 µM) | 4 (≈ 6.94 µM) | > 32 | 8 (≈ 13.9 µM) | 16 (≈ 27.7 µM) | 0.125 (≈ 0.217 µM) | 0.5 (≈ 0.867 µM)
